Results from ChEMBL document CHEMBL5226286, “The application of isatin-based multicomponent-reactions in the quest for new bioactive and druglike molecules” (Eur J Med Chem, 2021).
In brackets after ≈: the same amount, converted by molar mass.

Experiments:
[1] = system: Mycobacterium tuberculosis variant bovis; assay: Antimycobacterial activity against dormant stage of Mycobacterium bovis BCG ATCC 35743 assessed as minimum inhibitory concentration by NR assay; type: functional
[2] = system: Mycobacterium tuberculosis variant bovis; assay: Antimycobacterial activity against active stage of Mycobacterium bovis BCG ATCC 35743 assessed as minimum inhibitory concentration by NR assay; type: functional

Compound | MIC [1] [mg/L] | MIC [2] [mg/L]
Cc1ccc(Cn2cc(CN3C(=O)C4(C(C#N)=C(N)Oc5cc(C)oc(=O)c54)c4cc(Cl)ccc43)nn2)cc1 (stereo not drawn) | 5.23 (≈ 9.67 µM) | 5.24 (≈ 9.69 µM)
Cc1cc2c(c(=O)o1)C1(C(=O)N(Cc3cn(Cc4ccc(Cl)cc4)nn3)c3ccc(Br)cc31)C(C#N)=C(N)O2 (stereo not drawn) | 3.97 (≈ 6.55 µM) | 4.12 (≈ 6.8 µM)
Cc1ccc(Cn2cc(CN3C(=O)C4(C(C#N)=C(N)Oc5cc(C)oc(=O)c54)c4ccccc43)nn2)cc1 (stereo not drawn) | 5.36 (≈ 10.6 µM) | 7.42 (≈ 14.6 µM)
Cc1cc2c(c(=O)o1)C1(C(=O)N(Cc3cn(Cc4ccc(Cl)cc4)nn3)c3ccccc31)C(C#N)=C(N)O2 (stereo not drawn) | 4.35 (≈ 8.26 µM) | 2.97 (≈ 5.64 µM)
Cc1cc2c(c(=O)o1)C1(C(=O)N(Cc3cn(Cc4ccc(Cl)cc4)nn3)c3ccc(Cl)cc31)C(C#N)=C(N)O2 (stereo not drawn) | 7.73 (≈ 13.8 µM) | 3.04 (≈ 5.42 µM)
CC1(C)CC(=O)C2=C(C1)OC(N)=C(C#N)C21C(=O)N(Cc2cn(Cc3ccc(Cl)cc3)nn2)c2ccc(Cl)cc21 (stereo not drawn) | 3.09 (≈ 5.37 µM) | 2.87 (≈ 4.99 µM)
Cc1ccc(Cn2cc(CN3C(=O)C4(C(C#N)=C(N)OC5=C4C(=O)CC(C)(C)C5)c4cc(Br)ccc43)nn2)cc1 (stereo not drawn) | 6.23 (≈ 10.4 µM) | 2.87 (≈ 4.79 µM)
CC1(C)CC(=O)C2=C(C1)OC(N)=C(C#N)C21C(=O)N(Cc2cn(Cc3ccc(Cl)cc3)nn2)c2ccc(Br)cc21 (stereo not drawn) | 3.16 (≈ 5.1 µM) | 4.32 (≈ 6.97 µM)
CO[C@H]1/C=C/O[C@@]2(C)Oc3c(C)c(O)c4c(O)c(c(/C=N/N5CCN(C)CC5)c(O)c4c3C2=O)NC(=O)/C(C)=C\C=C\[C@H](C)[C@H](O)[C@@H](C)[C@@H](O)[C@@H](C)[C@H](OC(C)=O)[C@@H]1C [RIFAMPIN] | 0.81 (≈ 0.984 µM) | 0.45 (≈ 0.547 µM)
